From US8093234B2, “Method of increasing thymic output in HIV-negative patients by treatment with antiretroviral agents” (Mayo Foundation For Medical Education and Research, priority 2005, dated 2012)
Values joined by “and” are separate entries in the source; they are usually repeats but may differ in a detail not shown here. Equal values may be shown once. “Also recorded” adds a separate entry of the source.

Legend:
Kaposi's sarcoma = settings: mice implanted with Kaposi's sarcoma; cited from earlier work
[1] = system: adult T-cell leukemia cells; settings: NOD/SCID mice implanted with adult T-cell leukemia cells; cited from earlier work
[2] = system: thymic derived naïve T-cell numbers in the peripheral blood; assay: TREC analysis (sjTREC/CCR5 real-time PCR) of peripheral blood in HIV-negative volunteers on nelfinavir mono-therapy; type: in vivo, human
Description: (§1) Following approval by the Mayo Institutional Review Board, peripheral blood was sampled from 46 healthy blood donors older than 18 years of age for baseline TREC analysis. For the separate nelfinavir trial, 15 HIV-negative individuals with no active illness older than 18 years of age were given nelfinavir, 1250 mg orally, twice a day for 21 days. Blood for TREC analysis was obtained before therapy and on days 3, 5, 7, 14, and 21 after starting therapy. At each blood draw, side-effects were monitored and recorded from each subject. Severity of diarrhea was graded as: Grade 0—None; Grade 1—increase of 4 stools/day over pretreatment; Grade 2—increase of 4-6 stools/day, or nocturnal stools; Grade 3—increase of 7 stools/day or incontinence, or dehydration episode requiring parenteral support; Grade 4—episode of hemodynamic collapse requiring intensive care.
TREC Analysis: DNA was isolated from peripheral blood mononuclear cells (PBMC) using an QIAamp Blood Mini DNA Kit (Qiagen) and assessed for signal joint (sj) TREC content relative to genomic CCR5 copies by real-time PCR in a spectroflourometric thermal cycler (ABI PRISM 7700 or 7900, PE Applied Biosystems). SjTREC reactions contained 12.5 pmol primers (forward […] [SEQ ID NO:1]), reverse […] [SEQ ID NO:2]) 3 pmoles TAQMAN probe (FAM-[…]-TAMRA [SEQ ID NO:3]), 1× TAQMAN Universal PCR Master Mix (PE Applied Biosystems), and 50 to 400 ng of template DNA in a total volume of 25 μl. CCR5 reactions contained 12.5 pmol primers (forward […] [SEQ ID NO:4], and reverse […] [SEQ ID NO:5]), 3 pmoles TAQMAN probe (FAM-[…]-TAMRA [SEQ ID NO:6]),1× TAQMAN Universal PCR Master Mix, and 50-400 ng of template of genomic DNA in a total volume of 25 μl. Thermal cycling conditions consisted of a 2-minute incubation at 50° C. and an initial denaturation/activation step at 95° C. for 10 minutes, followed by 40 cycles of 95° C. for 15 seconds and 60° C. for 1 minute in a microplate format. For each plate of reactions, standard curves were generated with 1-100,000 copies of human sjTREC plasmid (provided by Dr. D. Douek, NIH) and human CCR5 plasmid (cloned by RT-PCR into pCI) in order to calculate copies of TREC versus CCR5.
Statistical analysis: Experiments from every figure were performed in duplicate and repeated at least twice. All measurements are presented as means and standard deviations with statistical comparisons made between baseline and day 21 TREC/CCR5 measurements using the Student's t test for paired observations. For FIG. 2, change in baseline to day 21 TREC/CCR5 levels were stratified according to subjects age with 2 subjects <40, 2 subjects 40-65, and 11 subjects >65 years old.

[3] = Side-effect monitoring in the nelfinavir trial in HIV-negative individuals; type: in vivo, human
Description: as §1

Structure (SMILES)	tumor response (Kaposi's sarcoma)	tumor growth [1]	volunteers who did not increase TREC numbers following 21 days ([2]; 15 subjects, 21 days)	volunteers who responded with increases in TREC numbers from baseline to day 21 ([2]; 15 subjects, 21 days)	effect on TREC levels / TREC positive naïve T-cell number ([2]; HIV-negative adults, mono-therapy for 21 days)	median increase in TRECs from baseline to day 21 in responders ([2]; eight responding volunteers, p<0.02)	change between baseline and day 21 TREC/CCR5 levels ([2]; entire cohort analyzed)	Day 21/0 TREC ([2]; individual subjects 1-15, nelfinavir 1250 mg orally twice a day for 21 days)	patients in whom TREC copies/copies CCR5 increased ([2]; of 15 subjects, p<0.02)	patients in whom TREC copies/copies CCR5 did not change ([2]; of 15 subjects, p=NS)	change in TREC levels between baseline (day 0) and days 3, 5, 7 or 14 ([2]; paired analysis)	average increase in TREC levels ([2]; subjects 40-65 years)	average change in TREC levels ([2]; subjects greater than 65 years)	average increase in TREC levels ([2]; subjects less than 40 years)	clinical tolerability ([3]; 1250 mg orally twice a day for 21 days)	subjects who completed the 21 days of therapy ([3]; 15 subjects)	subjects who experienced Grade 1 or 2 diarrhea ([3]; six of 15 subjects)
CC(C)c1nc(CN(C)C(=O)N[C@H](C(=O)N[C@@H](Cc2ccccc2)C[C@H](O)[C@H](Cc2ccccc2)NC(=O)OCc2cncs2)C(C)C)cs1 [Ritonavir]	significant tumor regression	reduced tumor growth	–	–	–	–	–	–	–	–	–	–	–	–	–	–	–
Cc1c(O)cccc1C(=O)N[C@@H](CSc1ccccc1)[C@H](O)CN1C[C@H]2CCCC[C@H]2C[C@H]1C(=O)NC(C)(C)C [nelfinavir]	–	–	47 % of total	53 % of total	induces an increase in TREC levels in a subset of healthy adults; also recorded: increases TREC positive naïve T-cell number	1.2 copies TREC/CCR5	no change	0.74 and 1.18 and 0.24 and 1.25 and 1.01 and 0.72 and 1.0 and 1.36 and 1.06 and 2.32 and 1.88 and 0.59 and 0.29 and 0.38 and 0.55	8 patients	7 patients	No significant change	0.80 TREC/CCR5 copies	0.89 TREC/CCR5 copies	1.2 TREC/CCR5 copies	clinically well tolerated	all but one subject	40%
